Measurements from patent US5484778A, “Phthalocyanine photosensitizers for photodynamic therapy and methods for their use” (priority 1993, dated 1996).
Entries after “also recorded” stand apart in the source; their conditions may differ.

Legend:
V79 cells [1] = test: Clonogenicity, killing of V79 cells using photodynamic therapy (Table 3); assay type: cell-based, Chinese hamster; conditions: for photosensitizing activity, killing V79 cells (in words): discussion of Table 3
Procedure: Using the cell culture methods described above, V79 cells Chinese hamster lung fibroblasts were treated with either 0.5 or 1.0 μM of the phthalocyanines listed in Table 3. About 18 hours thereafter, the cells were irradiated with increasing doses of 675 nm broad band red light from a 500 W tungsten-halogen lamp fitted with a 600 nm high pass filter, to determine the light dosage that would kill 90% of the phthalocyanine treated cells. Where 90% of the cells were not killed, the maximum percent of cells killed were determined, (expressed as % survival) and the related light dosage recorded.

V79 cells [2] = system: V79 cells
Procedure: V79 cells Chinese hamster lung fibroblasts were cultured using the cell culture methods described above. […] When the filters were dry, the phthalocyanines were extracted into ethanol and the absorption determined at the peak wavelength, usually 668 nm.

L5178Y cells = test: Induction of apoptosis (DNA fragmentation) in L5178Y-R cells (Table 6); assay type: cell-based, mouse; conditions: for apoptosis (in words): various concentrations and fluences
Procedure: (§1) Mouse lymphoma L5178y-R (hereinafter also referred to as "LY-R") cells were grown in suspension culture as described in Ramakrishnan N., Oleinick, N. L. Clay, M. E., Horng, M. F., Antunez, A. R., and Evans H. H., DNA lesions and DNA degradation in mouse lymphoma L5178Y cells after photodynamic treatment sensitized by chloroaluminum phthalocyanine. Photochem. Photobiol. 50, 373-378, 1989 and Agarwal, M. L., Clay, M. E., Harvey, E. J., Evans, H. H., Antunez, A. R., and Oleinick, N. L. Photodynamic therapy induces rapid cell death by apoptosis in L5178Y mouse lymphoma cells. Cancer Res., 51, 5993-5996, 1991.
(§2) The cells were used while in exponential growth. Stock solutions of either 0.5 or 1 mM of PcIV, PcXII, PcX, PcXVIII were prepared in dimethylformamide unless otherwise indicated and added to the 10 mL medium at a rate of 1 μL per mL. After allowing 18 hours for uptake of the phthalocyanine into the cells, the flasks containing the cultures were placed on a glass exposure tray above a 500-W tungsten-halogen lamp. The exposure tray was fitted with a 600-nm high-pass filter. Flasks were exposed to various fluences of red light (up to 30 kJ/m^2) at a fluence rate of approximately 74 W/m^2). After irradiation, the cells were collected by centrifugation.
(§3) For measurement of clonogenic cell survival, aliquots were plated in medium containing soft agar as described in Ramakrishnan N., Oleinick, N. L. Clay, M. E., Horng, M. F., Antunez, A. R., and Evans H. H., DNA lesions and DNA degradation in mouse lymphoma L5178Y cells after photodynamic treatment sensitized by chloroaluminum phthalocyanine. Photochem. Photobiol. 50, 373-378, 1989. The aliquots were plated in sufficient numbers to produce 50-200 colonies. The dishes were kept in an incubator at 37° C. in an atmosphere of 5% CO2 and 95% air for 10-14 days to allow viable cells to form colonies. Colonies were counted by eye. Controls treated with the phthalocyanine alone had plating efficiencies of ~90%. The plating efficiencies of the treated cells are normalized to the plating efficiencies of control cells in each experiment. For measurement of the induction of apoptosis, DNA was isolated from the treated and control cells 2 hours after photodynamic therapy, subjected to electrophoresis on 1.5% agarose, stained with ethidium bromide, and visualized by UV transillumination, as described in Agarwal et. al. The results are shown in Tables 4, 5 and 6 and in FIG. 3.
Cells were treated with various concentrations of the compounds listed in the table and various light fluences. DNA gels were prepared and examined for the characteristic "ladder" pattern of DNA fragments. For each Pc, the minimum total PDT dose tested (calculated as the product of the minimum phthalocyanine concentration and the minimum fluence) which produced visible DNA fragments is recorded. […] PcXVIII was also added at 0.5 and 1.0 μM.

L5178Y-R (LY-R) cells = test: Clonogenic survival of PDT-treated L5178Y-R cells (Tables 4 and 5, FIG. 3); assay type: cell-based, mouse; conditions: 0.5 μM; for activity relative to PcXII: from Table 5; for LD 90: fluence reducing survival to 10%; for LD50: fluence reducing survival to 50%
Procedure: as §1, §2, §3
In Table 4 each phthalocyanine was present at 0.5 μM, and the normalized plating efficiencies are presented as mean and standard deviation at each fluence tested. […] This relative activity of these four phthalocyanines is the same as obtained from screening in V79 cells.
PcXII when present in the culture medium at 0.5 μM requires less light, that is the lowest fluence, to kill either 50% […] of the cells. PcIV is about 80% as active as PcXII, PcX is 44% as active as PcXII and PcXVIII is 22% as active as PcXII.

RIF-1 tumors = test: PDT of RIF-1 implanted tumors (Table 7); assay type: in vivo, C3H/HeN mice; conditions: for effect on tumor volume / growth (in words): 1 mg/kg; for Doubling Time of Initial Tumor Volume after PDT: 1 mg/kg in corn oil, 675 nm, 135 J/cm^2
Procedure: The relative effectiveness at reducing tumor volume of selected phthalocyanine compounds at a given dosage was compared in vivo. RIF-1, i.e., radiation-induced fibrosarcoma, tumors were implanted into the backs of C3H/HeN mice. One tumor was implanted per mouse. Each of the phthalocyanine compounds listed in Table 7 was sonicated and vortexed in corn oil to produce a suspension. When the tumors reached […] in diameter and 2-3 mm in thickness, each mouse received 1 mg/kg in 0.1 ml of the corn oil, of the phthalocyanine suspension. For comparison, select mice received a conventional photosensitizer; either 5 mg/kg of chloroaluminum phthalocyanine tetrasulfonate, herein also referred to as "AlPcTS" in phosphate buffered saline or 5 mg/kg of Photofrin®-II in 5% dextrose. Twenty-four hours after the photosensitizers were administered, the tumors were irradiated with visible radiation delivered by an argon-pumped dye laser. The mice that received a phthalocyanine photosensitizer received light having a wavelength of 675 nm and the mice that received the Photofrin® II photosensitizer received light having a wavelength of 630 nm. Each tumor received 135 J/cm^2 of radiation. Tumor size was measured every day using calipers. The initial tumor volume was 50±10 mm^3. Tumor volume was calculated according to the hemiellipsoid model by the formula: [formula] Where l is length Where W is width

[3] = 0.5 μM, 18 h, light dose killing 90% of cells

Molecule: CCN(CCC[Si](C)(C)O[Si]1(O)n2c3c4ccccc4c2N=C2N=C(N=c4c5ccccc5c(n41)=NC1=NC(=N3)c3ccccc31)c1ccccc12)CCN(C)C (centres unmarked) [Compound X, HOSiPcOSi(CH3)2 (CH2)3 N(CH2 CH3)(CH2)2 N(CH3)2]
- LD 90 (V79 cells [1]; [3]): 7 kJ/m^2
- Uptake (from Table 2) (V79 cells [2]): 0.7 n Moles/10^6 cells/μM
- Uptake into V79 cells, composite value (V79 cells [2]): 0.7 n Moles/10^6 cells/μM
- Minimum Demonstrated Condition to induce apoptosis: C × F (L5178Y cells; 0.5 μM): 3.0 μm × kJ/m^2
- Minimum Demonstrated Condition to induce apoptosis: Fluence (L5178Y cells; 0.5 μM): 6.0 kJ/m^2
- Minimum Demonstrated Condition to induce apoptosis: C × F (L5178Y cells; 1.0 μM): 3.0 μm × kJ/m^2
- Minimum Demonstrated Condition to induce apoptosis: Fluence (L5178Y cells; 1.0 μM): 3.0 kJ/m^2
- apoptosis (in words) (L5178Y cells): the same minimum value for the C×F product was obtained in both cases
- photosensitizer activity in LY-R cells (in words) (L5178Y-R (LY-R) cells): active photosensitizers
- activity relative to PcXII (L5178Y-R (LY-R) cells): 44%
- LD 90 (L5178Y-R (LY-R) cells): 4.19 kJ/m^2
- LD50 (L5178Y-R (LY-R) cells): 2.38 kJ/m^2

Molecule: HOSiPcOSi(CH3)2 (CH2)3 N[(CH2)3 N(CH3)2 ]2 [Compound XXVII]
- LD 90 (V79 cells [1]; [3]): 6.8 kJ/m^2
- Uptake (from Table 2) (V79 cells [2]): 1.5 n Moles/10^6 cells/μM
- Uptake into V79 cells, composite value (V79 cells [2]): 1.5 n Moles/10^6 cells/μM
- uptake by V79 cells (in words) (V79 cells [2]): taken up particulary well

Molecule: C[Si](C)(CCCCNS(C)(=O)=O)O[Si]1(O)n2c3c4ccccc4c2N=C2N=C(N=c4c5ccccc5c(n41)=NC1=NC(=N3)c3ccccc31)c1ccccc12 (centres unmarked) [Compound IX, HOSiPCOSi(CH3)2 (CH2)4 NHSO2 CH3]
- Maximum Effect (% survival) (V79 cells [1]; 0.5 μM, at 9 kJ/m^2): 44%
- Uptake (from Table 2) (V79 cells [2]): 0.3 n Moles/10^6 cells/μM
- Uptake into V79 cells, composite value (V79 cells [2]): 0.3 n Moles/10^6 cells/μM
- Minimum Demonstrated Condition to induce apoptosis: C × F (L5178Y cells; 0.3 μM): 3.6 μm × kJ/m^2
- Minimum Demonstrated Condition to induce apoptosis: Fluence (L5178Y cells; 0.3 μM): 12.0 kJ/m^2
- Minimum Demonstrated Condition to induce apoptosis: C × F (L5178Y cells; 0.5 μM): 4.0 μm × kJ/m^2
- Minimum Demonstrated Condition to induce apoptosis: Fluence (L5178Y cells; 0.5 μM): 8.0 kJ/m^2
- Minimum Demonstrated Condition to induce apoptosis: C × F (L5178Y cells; 1.0 μM): 12.0 μm × kJ/m^2
- Minimum Demonstrated Condition to induce apoptosis: Fluence (L5178Y cells; 1.0 μM): 12.0 kJ/m^2
- apoptosis (in words) (L5178Y cells): activity increases and then decreases as the concentration is raised
- effect on tumor volume / growth (in words) (RIF-1 tumors): particularly effective in reducing tumor volume
- Doubling Time of Initial Tumor Volume after PDT (RIF-1 tumors): 11 days

Molecule: CN1CCN(CCC[Si](C)(C)O[Si]2(O)n3c4c5ccccc5c3N=C3N=C(N=c5c6ccccc6c(n52)=NC2=NC(=N4)c4ccccc42)c2ccccc23)CC1 (centres unmarked) [Compound XXVIII, HOSiPcOSi(CH3)2 (CH2)3 NC4 H8 NCH3]
- LD 90 (V79 cells [1]; [3]): 1.8 kJ/m^2
- photosensitizing activity, killing V79 cells (in words) (V79 cells [1]; listed as Pc XXVIII): photodynamic killing efficiency is superior to PcXII
- photosensitizing activity, killing V79 cells (in words) (V79 cells [1]; listed as PcXXVIII): most active at killing V79 cells; also recorded: highest activity in killing V79 cells of all of the phthalocyanines
- Minimum Demonstrated Condition to induce apoptosis: C × F (L5178Y cells; 0.3 μM): 0.9 μm × kJ/m^2
- Minimum Demonstrated Condition to induce apoptosis: Fluence (L5178Y cells; 0.3 μM): 3.0 kJ/m^2
- Doubling Time of Initial Tumor Volume after PDT (RIF-1 tumors): 24 days
- effect on tumor volume / growth (in words) (RIF-1 tumors; listed as Pc XXVIII): significantly impair the growth of the tumors
- effect on tumor volume / growth (in words) (RIF-1 tumors; listed as PcXXVIII): particularly effective in reducing tumor volume

Molecule: C[Si](C)(CCCCN)O[Si]1(O[Si](C)(C)CCCCN)n2c3c4ccccc4c2N=C2N=C(N=c4c5ccccc5c(n41)=NC1=NC(=N3)c3ccccc31)c1ccccc12 [Compound VII, SiPc[OSi(CH3)2 (CH2)4 NH2]2]
- LD 90 (V79 cells [1]; 0.5 μM, preplated data only): 4 kJ/m^2
- photosensitizing activity, killing V79 cells (in words) (V79 cells [1]; listed as PcVII): most active at killing V79 cells; also recorded: one of the better photosensitizers
- Uptake (from Table 2) (V79 cells [2]): 0.2 n Moles/10^6 cells/μM
- Uptake into V79 cells, composite value (V79 cells [2]): 0.2 n Moles/10^6 cells/μM
- uptake by V79 cells (in words) (V79 cells [2]): poor uptake
- Minimum Demonstrated Condition to induce apoptosis: C × F (L5178Y cells; 0.5 μM): 1.5 μm × kJ/m^2
- Minimum Demonstrated Condition to induce apoptosis: Fluence (L5178Y cells; 0.5 μM): 3.0 kJ/m^2

Molecule: SiPc[OSi(CH3)2 (CH2)4 NHSO2 CH3 ]2 [Compound VIII]
- Maximum Effect (% survival) (V79 cells [1]; 1 μM, at 30 kJ/m^2): 94%
- Uptake (from Table 2) (V79 cells [2]): 0.2 n Moles/10^6 cells/μM
- Uptake into V79 cells, composite value (V79 cells [2]): 0.2 n Moles/10^6 cells/μM
- induction of apoptosis (L5178Y cells; 1 μM at a fluence of 30 kJ/m^2): did not induce apoptosis
- effect on tumor volume / growth (in words) (RIF-1 tumors): the doubling of tumor volume was delayed in the animals treated with each of the compounds except PcVIII
- Doubling Time of Initial Tumor Volume after PDT (RIF-1 tumors): 4 days

Molecule: CCN(CCC[Si](C)(C)O[Si]1(O[Si](C)(C)CCCN(CC)CCN(C)C)n2c3c4ccccc4c2N=C2N=C(N=c4c5ccccc5c(n41)=NC1=NC(=N3)c3ccccc31)c1ccccc12)CCN(C)C [Compound XVIII, SiPc[OSi(CH3)2 (CH2)3 N(CH2 CH3)(CH2)2 N(CH3)2]2]
- LD 90 (V79 cells [1]; 1 μM, 18 h): 7 kJ/m^2
- photosensitizing activity, killing V79 cells (in words) (V79 cells [1]): good activity
- Minimum Demonstrated Condition to induce apoptosis: C × F (L5178Y cells; 0.5 μM): 5.0 μm × kJ/m^2
- Minimum Demonstrated Condition to induce apoptosis: Fluence (L5178Y cells; 0.5 μM): 10.0 kJ/m^2
- Minimum Demonstrated Condition to induce apoptosis: C × F (L5178Y cells; 1.0 μM): 3.0 μm × kJ/m^2
- Minimum Demonstrated Condition to induce apoptosis: Fluence (L5178Y cells; 1.0 μM): 3.0 kJ/m^2
- apoptosis (in words) (L5178Y cells): minimum value of C×F differed only slightly for the two conditions
- activity relative to PcXII (L5178Y-R (LY-R) cells): 22%
- LD 90 (L5178Y-R (LY-R) cells): 7.81 kJ/m^2
- LD50 (L5178Y-R (LY-R) cells): 5.00 kJ/m^2
- photosensitizer activity in LY-R cells (in words) (L5178Y-R (LY-R) cells; listed as PcXVIII): active photosensitizers; also recorded: least active
- effect on tumor volume / growth (in words) (RIF-1 tumors): particularly effective in reducing tumor volume
- Doubling Time of Initial Tumor Volume after PDT (RIF-1 tumors): 12 days
